Here are results for 3 molecules from patent US4748161A, “Triterpenyl esters of organic acids and hypolipidemic agents composed of them” (Amano Pharmaceutical Co., Ltd., priority 1984, dated 1988).

Where two headings read alike, the source gives them in different places.

Data set [1] is described as follows: Body weight of rats in method B. Also on record: species or system male Wistar strain rats. The note with it: rat, in vivo. Here is the method: (§1) Male Wistar strain rats (100±1 g, each 8 rats were formed into a group except that the control group fed with a hyperlipidemic diet was formed of 16 rats) were used as test animals. A powdery diet (CE-2, supplied by Clea Japan, Inc.) was used as ordinary diet. The hyperlipidemic diet was prepared by fortifying the ordinary diet with cholesterol (1%) and cholic acid (0.5%). Each test compound (1%) for administration was admixed with the hyperlipidemic diet. Each two rats were kept in a cage and given the prescribed diet and water ad libitum. Thus the rats were fed for 4 weeks at a constant temperature of 23±1° C. and a constant R.H. of 55±5%. Finally, the rats were fasted from food except water for 16 hours (from 4 p.m. of the 28th test day to 8 a.m. of the 29th test day), and under anesthesia with pentbarbital sodium (tradename: Nembutal), blood was taken from each rat through the descending abdominal arota. Then, TC, HDL-C, TG, PL, and LPO in the serum were measured in the following manner.

For data set [2], the system named is serum lipids and serum lipid hydroperoxide. Nature of the data set: Pharmacological test method B for anti-hyperlipidemic activity (serum lipids, 4 weeks feeding). In kind it is in vivo, male Wistar strain rats. More on the design: AI Diff.: unit not given here. The note with it: for AI [(TC - HDL-C)/(HDL-C)] / HDL-C in serum / LPO in serum / PL in serum / TC in serum / TG in serum: 1% in hyperlipidemic diet, 4 weeks; for change in vivo at 1 % in diet: Rattus norvegicus, po, 672 h; for change in vivo at 1 % in diet / AI Diff. / HDL-C Diff. / LPO Diff. / PL Diff. / TC % of diff. / TC Diff. / TG Diff.: versus control group; for HDL-C rise compared with normal diet group: versus normal diet group. Here is the method: Pharmacological test method B for anti-hyperlipidemic acitivity (the term "method B" was used in the present specification)
as §1
A TC kit-K (supplied by Nippon Shoji Kaisha, Ltd.) was used. The principle of this determination is as follows: The ester of cholesterol in the serum is hydrolyzed with cholesterol-ester hydrolase into free cholesterol and fatty acids. All the free cholesterol is oxidized with cholesterol oxydase to form Δ^4 -cholestenone and hydrogen peroxide. Phenol and 4-aminoantipyrin are oxidatively condensed together by the formed hydrogen peroxide and peroxydase. The produced red quinone coloring matter is measured by colorimetry for absorbance at 500 nm using a spectrophotometer, thereby determining the TC:
The color-developing liquid (3.0 ml) is well mixed with the sample serum (0.02 ml). The mixture once heated at 37° C. for 15 minutes, is measured for absorbance at 500 nm with a spectrophotometer. The found absorbance is denoted by EA. On the other hand, the color-developing liquid (3.0 ml) is well mixed with the standard solution. The mixture is treated and measured for absorbance at 500 nm in the same manner as the above. This found absorbance is denoted by ES. Both EA and ES are determined with reference to the value of the blank test conducted using the color-developing liquid (3.0 ml) alone. [formula]
An HDL-C kit-N (supplied by Nippon Shoji Kaisha, Ltd.) was used. […] (VLDL) and lo density lipoprotein (LDL) in the serum is precipitated by the action of heparin. The precipitate is separated by centrifugation. High density lipoprotein (HDL) is dissolved in the separated supernatant. Esters of cholesterol in this fraction is hydrolyzed with cholesterol-ester hydrolase into free cholesterol and fatty acids. All the free cholesterol is oxidized with cholesterol oxydase to form Δ^4 -cholestenone and hydrogen peroxide. Phenol and 4-aminoantipyrine are oxidatively condensed together by the formed hydrogen peroxide and peroxydase. The produced red quinone coloring matter is measured by colorimetry for absorbance at 500 nm using a spectrophotometer, thereby determining the HDL-C.
A PL kit-K (supplied by Nippon Shoji Kaisha, Ltd.) was used for the determination. Lecithin, sphingomyelin, and lysolecithin are decomposed by phospholipase D into choline and phosphatidic acid, N-acylsphingosyl phosphate, or lysophosphatidic acid, respectively. The resulting choline is quantitatively decomposed by choline oxydase into hydrogen peroxide and betaine. With this hydrogen peroxide, and aid of peroxydase, phenol and 4-aminoantipyrin are condensed into red quinone pigment, then the absorbance at 500 nm of which is measured with a spectrophotometer, thereby determining the PL. […]

Turning to `CCOc1cc(C=C(C)C(=O)OC2CCC34CC35CCC3(C)C(C(C)CCC(C)=C(C)C)CCC3(C)C5CCC4C2(C)C)ccc1O` (stereo not drawn) [Example 140, cyclobranyl ester of 3-ethoxy-4-hydroxy-α-methylcinnamic acid], in data set [1], the “Body weight during feed period, 1st day” value was found to be 105 ± 3.6 g; the “Body weight during feed period, 8th day” value was found to be 147 ± 9.5 g; the “Body weight during feed period, 15th day” value is recorded as 194 ± 17.2 g; the “Body weight during feed period, 22nd day” value worked out at 246 ± 15.8 g. Moreover, in data set [1], the “Body weight during feed period, 28th day” value stood at 273 ± 18.7 g and the “Body weight just before blood sampling, 29th day” value came out at 261 ± 15.6 g. In addition, in data set [2], the “AI [(TC - HDL-C)/(HDL-C)]” value amounted to 2.602, the HDL-C in serum amounted to 54.8 mg/dL, the LPO in serum stood at 2.02 nmol/mL and the PL in serum was found to be 98.0 mg/dL. Moreover, in data set [2], the TC in serum was 197.4 mg/dL, the TG in serum worked out at 52.4 mg/dL, the “AI Diff.” value is listed as -19.16 and the “HDL-C Diff.” value is on record as “+41.3 mg/dl”. Further, in data set [2], the “LPO Diff.” value was -0.80 nmol/mL, the “PL Diff.” value was -42.1 mg/dL, the “TC % of diff.” value is on record as -35.8% and the “TC Diff.” value is -109.9 mg/dL. Further, in data set [2], the “TG Diff.” value was -4.1 mg/dL and the “HDL-C rise compared with normal diet group” value is on record as “remarkable rises”. Further, the change in vivo at 1 % in diet in data set [2] (read-out: AI % of diff.) is -88%. In data set [2] (read-out: HDL-C % of diff.), the change in vivo at 1 % in diet was determined as 306%. Also, the change in vivo at 1 % in diet in data set [2] (read-out: LPO % of diff.) was -28.4%. Besides, in data set [2] (read-out: PL % of diff.), the change in vivo at 1 % in diet was -30%. Also, the change in vivo at 1 % in diet in data set [2] (read-out: TG % of diff.) was -7.3%.
With `COc1cc(C=C(C)C(=O)OC2CCC34CC35CCC3(C)C(C(C)CCC=C(C)C)CCC3(C)C5CCC4C2(C)C)ccc1N` (stereo not drawn) [Example 189, Cycloartenyl ester of 4-amino-3-methoxy-α-methylcinnamic acid], in data set [1], the “Body weight during feed period, 1st day” value is reported as 104 ± 3.8 g; the “Body weight during feed period, 8th day” value is on record as 142 ± 8.1 g; the “Body weight during feed period, 15th day” value was 188 ± 12.6 g; the “Body weight during feed period, 22nd day” value was found to be 239 ± 20.6 g. Besides, in data set [1], the “Body weight during feed period, 28th day” value is on record as 268 ± 22.7 g and the “Body weight just before blood sampling, 29th day” value is 256 ± 20.2 g. Further, in data set [2], the “AI [(TC - HDL-C)/(HDL-C)]” value was found to be 4.071, the HDL-C in serum turned out to be 35.4 mg/dL, the LPO in serum came to 2.05 nmol/mL and the PL in serum was 115.0 mg/dL. In data set [2], this molecule had a TC in serum of 179.5 mg/dL and a TG in serum of 58.4 mg/dL.
For the molecule `C=C(CCC(C)C1CCC2(C)C3CCC4C(C)(C)C(OC(=O)C(C)=Cc5ccc(O)c(OC)c5)CCC45CC35CCC12C)C(C)C` (stereo not drawn) [Example 118, 24-methylenecycloartanyl ester of 4-hydroxy-3-methoxy-α-methylcinnamic acid], in data set [1], the “Body weight during feed period, 1st day” value turned out to be 106 ± 3.4 g; the “Body weight during feed period, 8th day” value was determined as 147 ± 9.2 g; the “Body weight during feed period, 15th day” value came out at 192 ± 17.8 g; the “Body weight during feed period, 22nd day” value came to 243 ± 15.4 g. Also, in data set [1], the “Body weight during feed period, 28th day” value amounted to 274 ± 18.4 g and the “Body weight just before blood sampling, 29th day” value was determined as 259 ± 20.4 g. Further, in data set [2], the “AI [(TC - HDL-C)/(HDL-C)]” value is listed as 1.943, the HDL-C in serum turned out to be 47.4 mg/dL, the LPO in serum came to 2.08 nmol/mL and the PL in serum was determined as 98.3 mg/dL. In data set [2], the TC in serum amounted to 139.5 mg/dL, the TG in serum amounted to 51.4 mg/dL, the “AI Diff.” value is listed as -19.82 and the “HDL-C Diff.” value is “+33.9 mg/dl”. In addition, in data set [2], the “LPO Diff.” value was -0.74 nmol/mL, the “PL Diff.” value was -41.8 mg/dL, the “TC % of diff.” value is -54.6% and the “TC Diff.” value was -168.2 mg/dL. In addition, in data set [2], the “TG Diff.” value was -5.1 mg/dL and the “HDL-C rise compared with normal diet group” value is given as “remarkable rises”. Besides, in data set [2] (read-out: AI % of diff.), the change in vivo at 1 % in diet was -91.9%. The change in vivo at 1 % in diet in data set [2] (read-out: HDL-C % of diff.) is 251%. Further, in data set [2] (read-out: LPO % of diff.), the change in vivo at 1 % in diet is -26.2%. Moreover, in data set [2] (read-out: PL % of diff.), the change in vivo at 1 % in diet was -29.8%. Moreover, the change in vivo at 1 % in diet in data set [2] (read-out: TG % of diff.) was -9%.
